In brackets after ≈: the same amount, converted by molar mass. Where two headings read alike, the source gives them in different places.
Columns and labels:
S. aureus T25.10 (MRSA) = assay: Broth microdilution MIC; format: cell-based, Staphylococcus aureus; conditions: S. aureus T25.10 (MRSA)
Procedure: (§1) The protocol employed was inspired by Abedini et al. with some modifications. Products were solubilized in DMSO and serially diluted two-fold in MH medium. A bacterial suspension at 10^5 CFU/mL was added to obtain a final volume of 200 µL. Final phenolic product concentrations in wells ranged from 625 to 2.4 µg/mL (exception for lupulone for which dilutions were continued until 0.3 µg/mL). […] Plates were incubated overnight with stirring (60 rpm) at 37 °C.

S. aureus 08143 (MSSA) = assay: Broth microdilution MIC; format: cell-based, Staphylococcus aureus; conditions: S. aureus 08143 (MSSA)
Procedure: as §1

S. aureus T26A4 (MSSA) = assay: Broth microdilution MIC; format: cell-based, Staphylococcus aureus; conditions: S. aureus T26A4 (MSSA)
Procedure: as §1

[1] = system: MG-63 cells (osteosarcoma); assay: cells; format: cell-based, human
Procedure: Several human cell lines were used for the cytotoxic bioassays: non-cancer lung fibroblasts (WI-38), hepatocellular carcinoma (Hep-G2), osteosarcoma (MG-63) and the mouse monocyte macrophage J774. Cells were seeded into wells of a 96-well microplate in a Gibco™ Dulbecco’s modified eagles medium (DMEM), except for MG-63 which were cultivated in a minimum essential medium (MEM) (ThermoFisher Scientific, Illkirch-Graffenstaden, France). Both media were enriched with 10% FBS (ThermoFisher Scientific, France) and some antibiotics (mixture penicillin/streptomycin 100 UI/mL, Sigma Aldrich). After one or two days at 37 °C (5% of CO2), wells were emptied by suction. Cells were then treated with hops compounds (xanthohumol, desmethylxanthohumol, humulone, lupulone) in DMSO at 0.2% in the culture medium, to obtain a final volume of 100 µL in wells (negative control: 0.2% DMSO). Camptothecin was used as a positive control. After 48 to 72 h exposure, culture medium was replaced by 10% of Alamar blue or 3-(4,5-dimethylthiazol-2-yl)-2,5-diphenyltetrazolium bromide (MTT) in the medium (ThermoFisher Scientific®, Illkirch, France) and plates were incubated the time necessary to the reaction. Results were measured respectively by fluorescence (excitation 530 nm and emission 590 nm) or by optical density at 550 nm. The IC50 of each product was determined using GraphPad Prism (version 5.01).

S. aureus T28.1 biofilm [2] = assay: Anti-biofilm: biofilm formation on artificial surface; format: cell-based, Staphylococcus aureus
Procedure: These experiments were inspired and adapted from Liu et al.. They were performed using a 96-well microplate with a flat bottom.
First, the effect of xanthohumol, desmethylxanthohumol and lupulone was assessed on the biofilm formation: 180 µL of BHI medium containing glucose at 10 mg/mL was added to each well of a 96-well microplate with 10 µL of the product previously solubilized in DMSO and 10 µL of a 10^5 CFU/mL bacterial suspension. The maximum concentration in DMSO was 5%. Final concentrations of purified products were from MIC/4 to 4 × MIC. After 24 h incubation at 37 °C, wells were voided and washed 3 times with phosphate buffered saline solution (PBS, Sigma-Aldrich, Saint-Quentin Fallavier, France). Plates were then dried and 150 µL of crystal violet solution at 20 mg/mL in MeOH (Sigma-Aldrich®, Saint-Quentin Fallavier, France) were added for 15 min. After removing crystal violet, 150 µL of EtOH were added to solubilize crystal violet present in adherent bacteria. The optical density was read at 570 nm.

S. aureus T28.1 biofilm [3] = assay: Anti-biofilm: biofilm formation on synthetic bone substitute; format: cell-based, Staphylococcus aureus; conditions: at MIC
Procedure: β-Tricalcium phosphate discs (Cerasorb®, Curasan, Germany) were used as bone substitute. Non-glucose enriched BHI medium was used here, because the bacterial glucose metabolism causes an acidification of the culture medium which leads to the disintegration of the discs. Discs were introduced in a 24-well plate: 1.8 mL of BHI media were added with 0.1 mL of product in DMSO (5%) and 0.1 mL of a 10^5 CFU/mL bacterial suspension. Final concentrations of hop phenolic compounds were from MIC/4 to 4 × MIC. After 24 h at 37 °C, counts were performed in two steps. First, planktonic bacteria were counted from 100 µL of the culture supernatant by plating tenfold dilutions on MHA. Then, bacteria adhering to the discs were counted: discs were removed and washed with a CR solution, then, 10 mL of CR were added to each disk and treated 1 min by sonication (35 kHz) and 30 s by vortex. The obtained suspension was enumerated as previously. The detection threshold was also 1 log(CFU/mL).

MRSA strains = assay: Broth microdilution MIC, range over strains; format: cell-based; conditions: Staphylococcus aureus, read-out: MICs towards MRSA strains
Procedure: as §1

[4] = system: selected S. aureus strains; assay: Broth microdilution MIC, range over strains; format: cell-based; conditions: Staphylococcus aureus; range over MRSA and MSSA strains of Table 3; read-out: MIC against selected S. aureus strains
Procedure: as §1

Plasmodium falciparum = system: Plasmodium falciparum; design: method as in PMID 15824094; conditions: cited from earlier work
Leishmania amazonensis = system: Leishmania amazonensis; design: method as in PMID 27938439; conditions: cited from earlier work
biofilm formation = system: biofilm formation; design: method as in PMID 24175280; conditions: at the MIC; cited from earlier work
mice = system: mice; design: method as in PMID 20427021; conditions: approximately 1000 mg/kg of body weight of mice; cited from earlier work
humans = system: humans; design: method as in PMID 24038952; conditions: up to 180 mg in humans for a short intake; cited from earlier work
lung cell line = system: lung cell line; design: method as in PMID 26664015; conditions: cited from earlier work
[5] = system: human hepatocellular carcinoma; design: method as in PMID 18814205; conditions: cited from earlier work
[6] = Staphylococcus aureus, read-out: MIC
[7] = Staphylococcus aureus, value in parentheses, read-out: MIC
[8] = Homo sapiens, MG-63, read-out: IC50 ± SD
[9] = Homo sapiens, MG-63, value in parentheses, read-out: IC50 (converted)
[10] = value in parentheses, read-out: MIC

Molecule	MIC (S. aureus T25.10 (MRSA); [6])	MIC (S. aureus T25.10 (MRSA); [7])	MIC (S. aureus 08143 (MSSA); [6])	MIC (S. aureus 08143 (MSSA); [7])	MIC (S. aureus T26A4 (MSSA); [6])	MIC (S. aureus T26A4 (MSSA); [7])	IC50 [1, 8]	IC50 [1, 9]	Biofilm formation on artificial surface (S. aureus T28.1 biofilm [2]; sub-inhibitory concentrations)	Biofilm formation on bone substitute discs (S. aureus T28.1 biofilm [3])	MIC (MRSA strains)	MIC [4]	further results
CC(C)=CCc1c(O)cc(O)c(C(=O)/C=C/c2ccc(O)cc2)c1O [DMX, desmethylxanthohumol]	19.5 µg/mL	57.3 µM	39 µg/mL	115 µM	39 µg/mL	115 µM	39.5 ± 3.3 µg/mL	116 µM	significant inhibition	significant decrease	19.5 to 39 µg/mL (≈ 57.3 to 115 µM)	19.5 to 39 µg/mL (≈ 57.3 to 115 µM)	
lupulone									significant inhibition	significant decrease			MIC (S. aureus T25.10 (MRSA)): 0.6 µg/mL; MIC (S. aureus T25.10 (MRSA); [10]): 1.45 µM; MIC (S. aureus 08143 (MSSA)): 1.2 µg/mL; MIC (S. aureus 08143 (MSSA); [10]): 2.9 µM; MIC (S. aureus T26A4 (MSSA)): 0.6 µg/mL; MIC (S. aureus T26A4 (MSSA); [10]): 1.45 µM; cell viability [1]: ~100%; IC50 ± SD ([1]; MG-63): 4.3 ± 0.4 µg/mL; IC50 ([1]; MG-63, value in parentheses, read-out: IC50 (converted)): 10.4 µM; selectivity index ([1]; antibacterial activity compared to cytotoxicity against MG-63): > 4
COc1cc(O)c(CC=C(C)C)c(O)c1C(=O)/C=C/c1ccc(O)cc1 [XN, xanthohumol]	9.8 µg/mL	27.7 µM	19.5 µg/mL	55 µM	9.8 µg/mL	27.7 µM	10.4 ± 2.6 µg/mL	29.4 µM			9.8 to 19.5 µg/mL (≈ 27.7 to 55 µM)	9.8 to 19.5 µg/mL (≈ 27.7 to 55 µM)	IC50 (Plasmodium falciparum): in the µM range; IC50 (Leishmania amazonensis): in the µM range; Inhibition of biofilm formation (biofilm formation): 86.5%; Safety in vivo (mice): good safety; Safety in vivo (humans): good safety; IC50 (lung cell line): ~100 µg/mL (≈ 282 µM); Biofilm formation on artificial surface (S. aureus T28.1 biofilm [2]; at the MIC): totally inhibited; Inhibition of biofilm formation (S. aureus T28.1 biofilm [2]; at the MIC): ~100%; IC50 [5]: about 75 µg/mL
